Experimental data reported in US12264159B2, “Functionalized heterocycles as antiviral agents” (Enanta Pharmaceuticals, Inc., priority 2018, dated 2025).

Key:
[1] = Compound induced cellular toxicity in HepG2 cells, ATPlite 1Step; assay type: cell-based; settings: human, three days exposure, 50% reduction of total ATP vs no drug controls
Description: At day 3, post seeding cells are treated with ATPlite 1Step according to the manufacturer's instructions.

HBV in 2.2.15 cells = assay: 2.2.15 cells: viral product in cell lysates quantified via quantitative real time PCR; assay type: cell-based, hepatitis B virus (HBV); settings: Hepatitis B virus, 120 h, day 5 post treatment, 50% reduction of viral product vs no drug controls, readout (qPCR, HBsAg or HBeAg) not specified for the column
Summary of the method: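 HBV product was measured at day 5 by lysate qPCR or by supernatant HBsAg/HBeAg ELISA, in 2.2.15 cells seeded at 35,000/well and exposed to 5-fold compound dilution series (0.5% DMSO). EC50 is 50% reduction of viral product relative to untreated controls.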

SMILES | CC50 at 3 days [1] [µM] | EC50 (HBV in 2.2.15 cells) [nM]
CC(C)(C)[C@@H]1Cn2ncc(-c3ccc(F)cc3F)c2-c2cc(=O)c(C(=O)O)cn21 [Example 100, (R)-6-(tert-butyl)-1-(2,4-difluorophenyl)-10-oxo-5,6-dihydro-10H-pyrazolo[1,5-a]pyrido[2,1-c]pyrazine-9-carboxylic acid] | > 25 | < 100
CCOc1cccc(F)c1-c1cc2n(n1)C[C@@H](C(C)(C)C)n1cc(C(=O)O)c(=O)cc1-2 [Example 74, (R)-6-(tert-butyl)-2-(2-ethoxy-6-fluorophenyl)-10-oxo-5,6-dihydro-10H-pyrazolo[1,5-a]pyrido[2,2-c]pyrazine-12-carboxylic acid] | > 25 | < 100
COc1ccc(OCc2ccccc2)cc1-c1cc2n(n1)C[C@@H](C(C)(C)C)n1cc(C(=O)O)c(=O)cc1-2 [Example 36, (R)-2-(5-(benzyloxy)-2-methoxyphenyl)-6-(tert-butyl)-10-oxo-5,6-dihydro-10H-pyrazolo[1,5-a]pyrido[2,2-c]pyrazine-12-carboxylic acid] | > 25 | < 100
CC(C)(C)[C@@H]1Cn2nc(-c3cccc4c3sc3ccccc34)cc2-c2cc(=O)c(C(=O)O)cn21 [Example 70, (R)-6-(tert-butyl)-2-(dibenzo[b,d]thiophen-4-yl)-10-oxo-5,6-dihydro-10H-pyrazolo[1,5-a]pyrido[2,2-c]pyrazine-12-carboxylic acid] | > 25 | 200 to 1000
COc1ccc(-c2c(C3CC3)nn3c2-c2cc(=O)c(C(=O)O)cn2[C@H](C(C)(C)C)C3)cc1 [Example 158, (R)-6-(tert-butyl)-2-cyclopropyl-1-(4-methoxyphenyl)-10-oxo-5,6-dihydro-10H-pyrazolo[1,5-a]pyrido[2,1-c]pyrazine-9-carboxylic acid] | > 25 | < 100
CC(C)(C)[C@@H]1Cn2nc(-c3ccccc3F)cc2-c2cc(=O)c(C(=O)O)cn21 [Example 3, (R)-6-(tert-butyl)-2-(2-fluorophenyl)-10-oxo-5,6-dihydro-10H-pyrazolo[1,5-a]pyrido[2,2-c]pyrazine-12-carboxylic acid] | > 25 | < 100
CC(C)(C)[C@@H]1Cn2nc(C3CC3)c(-c3cnsc3)c2-c2cc(=O)c(C(=O)O)cn21 [Example 162, (R)-6-(tert-butyl)-2-cyclopropyl-1-(isothiazol-4-yl)-10-oxo-5,6-dihydro-10H-pyrazolo[1,5-a]pyrido[2,1-c]pyrazine-9-carboxylic acid] | > 25 | < 100
CC(C)(C)[C@@H]1Cn2cnc(-c3ccc(F)cc3)c2-c2cc(=O)c(C(=O)O)cn21 [Example 207, (R)-6-(tert-butyl)-1-(4-fluorophenyl)-10-oxo-5,6-dihydro-10H-imidazo[1,5-a]pyrido[2,1-c]pyrazine-9-carboxylic acid] | > 25 | < 100
CC(C)(C)[C@@H]1Cn2nc(C3CC3)c(-c3ccccc3)c2-c2cc(=O)c(C(=O)O)cn21 [Example 149, (R)-6-(tert-butyl)-2-cyclopropyl-10-oxo-1-phenyl-5,6-dihydro-10H-pyrazolo[1,5-a]pyrido[2,1-c]pyrazine-9-carboxylic acid] | > 25 | < 100
COc1ccc(O)c(-c2cc3n(n2)C[C@@H](C(C)(C)C)n2cc(C(=O)O)c(=O)cc2-3)c1 [Example 56, (R)-6-(tert-butyl)-2-(2-hydroxy-5-methoxyphenyl)-10-oxo-5,6-dihydro-10H-pyrazolo[1,5-a]pyrido[2,2-c]pyrazine-12-carboxylic acid] | > 25 | < 100
CC(C)(C)[C@@H]1Cn2nc(-c3cccc4occc34)cc2-c2cc(=O)c(C(=O)O)cn21 [Example 28, (R)-2-(benzofuran-4-yl)-6-(tert-butyl)-10-oxo-5,6-dihydro-10H-pyrazolo[1,5-a]pyrido[2,2-c]pyrazine-12-carboxylic acid] | > 25 | < 100
